In US4691017A, “2-hydroxy-and 2-halo-ethylthiopyridine intermediates for preparing antiulcer compounds” (Richter Gedeon Vegyeszeti Gyar Rt., priority 1984, dated 1987):
Where a name gives a salt, the structure may show the parent alone. Read-outs that look alike come from different tables or passages of the source.

What was measured:
[1] = tested on: Gastric necrosis (gastric oedema and haemorrhagic injury); test: Gastric necrosis induced by acidic ethanol (cytoprotective activity); assay type: in vivo, Female RG-Wistar rats; conditions: for ED50: Rattus norvegicus, po, 1 h, acidic ethanol, p.o.
Method: Water was given ad libitum. […] One hour later the animals were killed by overdosing with ether. Stomachs were removed and opened along the major curvature. After cleaning the wet weight of the stomachs was determined, and the difference between the wet weight obtained and the wet weight of the stomachs of untreated (control) animals was calculated, in order to determine the degree of gastric oedema. The stomachs were then dried and the gastic lesions were observed visually. Lengths of lesions were measured in millimeters. (Derelanko and Long, Proc. Soc. Exp. Biol. and Med. 166, 394 (1981)), and the length of the average lesions per stomach was given. Degree of cytoprotection was expressed in % related to the control. The statistical evaluation of the results was carried out by the Student test.

Gastric acid secretion = Gastric acid secretion inhibiting activity on Shay rats; assay type: in vivo, Female H-Wistar rats
Method: Gastric acid secretion inhibiting activity on Shay rats (Gastroenterology, 5, 43-46 (1945)
Female H-Wistar rats weighing 120-150 g each were fasted for 24 hours. Water was added ad libitum. The pylorus of the animals was ligated under light ether narcosis. The test drugs were administered during the operation, partially orally, partially intraperitoneally. 4 hours after treatment the animals were killed by an overdose of ether. The stomach was excised and cut along the large curvature. The volume and the pH of the contents were determined and in each case the HCl production was determined by titration.

Intestinal ulcer = test: Indomethacin-induced intestinal ulceration (inflation technique); assay type: in vivo, Female RG-Wistar rats
Antral ulcer = test: Indomethacin-induced antral ulceration; assay type: in vivo, Female RG-Wistar rats
Method: Indomethacin-induced antral and intestinal ulceration
Female RG-Wistar rats weighing 120 to 150 g. each were fasted for 24 hours. Water was added ad libitum. The animals were then given access to food for one hour, and 30 minutes after the administration of the test compounds a 15-mg./kg. oral dose of indomethacin was administered. 24 hours after indomethacin treatment the animals were killed by overdose of ether. Stomachs and the entire intestine were removed, the stomachs were opened along the main curvature, and the total ulcerated area (ulceration index, mm^2) was determined.

[2] = tested on: Aspirin-induced gastric ulceration; test: Inhibition of aspirin-induced gastric ulceration; assay type: in vivo, Female H. Wistar rats
Method: Inhibition of aspirin-induced gastric ulceration
Female H. Wistar rats weighing 120 to 150 g each were fasted for 24 hours. Water was given ad libitum. The stomach ulcer was induced by oral administration of aspirin in a dose of 100 mg./kg. (in Tween 80 suspension). The test was given simultaneously with the administration of aspirin, orally. The animals were killed by overdose if ether, 4 hours after treatment. The stomach was excised and cut along the large curvature. The red-brownish erosions on the glandular surface were counted. When evaluating the test results, the number of ulcers per stomach and its proportion to the number of ulcers found in the stomachs of control animals (inhibition of ulceration) were determined.

[3] = read-out: Gastric oedema inhibition ED50
[4] = read-out: Haemorrhagic injury inhibition ED50
[5] = indomethacin 15 mg./kg. p.o. with 5 mg./kg. p.o. test compound
[6] = indomethacin 15 mg./kg. p.o. with 25 mg./kg. p.o. test compound
[7] = indomethacin 15 mg./kg. p.o. with 25 mg./kg. p.o. test compound, N 20
[8] = indomethacin 15 mg./kg. p.o. with 50 mg./kg. p.o. test compound

NCCSc1ncccc1C(=O)c1ccccc1 [Compound A, 2-[(2-aminoethyl)-thio]-3-benzoyl-pyridine.HCl]
Haemorrhagic injury ([1]; 0.05 mg./kg. p.o.): 48 ± 19 mm | Haemorrhagic injury inhibition ([1]; 0.05 mg./kg. p.o.): 45% | Oedema inhibition ([1]; 0.05 mg./kg. p.o.): 19% | Oedema ([1]; 0.05 mg./kg. p.o., N 8): 307 ± 42 mg | Haemorrhagic injury ([1]; 0.1 mg./kg. p.o.): 38 ± 18 mm | Oedema ([1]; 0.1 mg./kg. p.o., N 10): 209 ± 51 mg | Haemorrhagic injury inhibition ([1]; 0.1 mg./kg. p.o., p < 0.05): 56% | Oedema inhibition ([1]; 0.1 mg./kg. p.o., p < 0.05): 45% | Haemorrhagic injury ([1]; 1.0 mg./kg. p.o.): 5 ± 1.5 mm | Oedema ([1]; 1.0 mg./kg. p.o., N 12): 72 ± 28 mg | Haemorrhagic injury inhibition ([1]; 1.0 mg./kg. p.o., p < 0.01): 96% | Haemorrhagic injury ([1]; 10.0 mg./kg. p.o.): 6 ± 3 mm | Oedema ([1]; 10.0 mg./kg. p.o., N 12): 22 ± 12 mg | Haemorrhagic injury inhibition ([1]; 10.0 mg./kg. p.o., p < 0.01): 94% | Oedema inhibition ([1]; 10.0 mg./kg. p.o., p < 0.01): 95% | ED50 [1, 3]: 0.2 mg/kg | ED50 [1, 4]: 0.1 mg/kg | gastrocytoprotective activity after indomethacin pre-treatment ([1]; indomethacin pre-treatment): not eliminated by indomethacin pre-treatment | gastrocytoprotective activity, selectivity in words ([1]; versus gastric acid secretion inhibition): selective gastrocytoprotective activity | Secretion HCl inhibition (Gastric acid secretion; 5 mg./kg. p.o.): 37% | Secretion HCl/4 hours (Gastric acid secretion; 5 mg./kg. p.o., N 5): 357 ± 35 μmol/100 g body weight | Secretion HCl inhibition (Gastric acid secretion; 6 mg./kg. i.p.): 11% | Secretion HCl/4 hours (Gastric acid secretion; 6 mg./kg. i.p., N 5): 505 ± 29 μmol/100 g body weight | Secretion HCl inhibition (Gastric acid secretion; 10 mg./kg. p.o.): 38% | Secretion HCl/4 hours (Gastric acid secretion; 10 mg./kg. p.o., N 15): 350 ± 38 μmol/100 g body weight | Secretion HCl/4 hours (Gastric acid secretion; 12 mg./kg. i.p., N 10): 200 ± 30 μmol/100 g body weight | Secretion HCl inhibition (Gastric acid secretion; 12 mg./kg. i.p., p < 0.01): 65% | Secretion HCl inhibition (Gastric acid secretion; 20 mg./kg. p.o.): 34% | Secretion HCl/4 hours (Gastric acid secretion; 20 mg./kg. p.o., N 15): 372 ± 40 μmol/100 g body weight | Secretion HCl inhibition (Gastric acid secretion; 25 mg./kg. i.p.): 100% | Secretion HCl/4 hours (Gastric acid secretion; 25 mg./kg. i.p., N 5): 0 μmol/100 g body weight | Secretion HCl/4 hours (Gastric acid secretion; 40 mg./kg. p.o., N 5): 124 ± 27 μmol/100 g body weight | Secretion HCl inhibition (Gastric acid secretion; 40 mg./kg. p.o., p < 0.01): 70% | higher dose at which gastric acid secretion inhibiting activity was observed (relative to gastrocytoprotective dose) (Gastric acid secretion; selectivity of cytoprotection over acid secretion inhibition): about 500 times | Intestinal ulcer, tensile strength 24 hours after indomethacin treatment (Intestinal ulcer; [5]): 162 ± 14 mmHg | Intestinal ulcer, tensile strength 24 hours after indomethacin treatment (Intestinal ulcer; [6]): 198 ± 9 mmHg | Antral ulcer, ulceration index (Antral ulcer; [5]): 18.9 mm^2 /stomach | Antral ulcer, rats having no ulcer (Antral ulcer; indomethacin 15 mg./kg. p.o. with 5 mg./kg. p.o. test compound, N 15): 3 | Antral ulcer, ulceration index (Antral ulcer; [6]): 4.0 mm^2 /stomach | Antral ulcer, rats having no ulcer (Antral ulcer; [7]): 12 | Inhibition (of ulceration) ([2]; aspirin 100 + test compound 1 mg./kg.p.o.): 38% | Ulcer/Stomach ([2]; aspirin 100 + test compound 1 mg./kg.p.o., N 20): 9.4 + 4.1 | Inhibition (of ulceration) ([2]; aspirin 100 + test compound 2 mg./kg.p.o.): 47% | Ulcer/Stomach ([2]; aspirin 100 + test compound 2 mg./kg.p.o., N 10): 8.0 + 3.0 | Inhibition (of ulceration) ([2]; aspirin 100 + test compound 10 mg./kg.p.o.): 76% | Ulcer/Stomach ([2]; aspirin 100 + test compound 10 mg./kg.p.o., N 10): 3.7 + 4.5

CC(=O)N(CCSc1ncccc1C(=O)c1ccccc1)C(C)=O [B, 3-benzoyl-2-{[2-(N,N-diacetylamino)-ethyl]-thio}-pyridine]
ED50 [1, 3]: 1 mg/kg | ED50 [1, 4]: 2 mg/kg

Cc1ccc(C)c(C(=O)c2cccnc2SCCN)c1 [D, 2-[(2-aminoethyl)-thio]-3-(2,5-dimethylbenzoyl)pyridine.HCl]
ED50 [1, 3]: 10 mg/kg | ED50 [1, 4]: 10 mg/kg

CN/C(=N/CCSCc1nc[nH]c1C)NC#N [cimetidine, reference compound]
Haemorrhagic injury ([1]; 25 mg./kg. p.o.): 82 ± 21 mm | Haemorrhagic injury inhibition ([1]; 25 mg./kg. p.o.): 2% | Oedema ([1]; 25 mg./kg. p.o., N 8): 441 ± 82 mg | Haemorrhagic injury ([1]; 100 mg./kg. p.o.): 42 ± 13 mm | Haemorrhagic injury inhibition ([1]; 100 mg./kg. p.o.): 46% | Oedema inhibition ([1]; 100 mg./kg. p.o.): 21% | Oedema ([1]; 100 mg./kg. p.o., N 8): 301 ± 42 mg | Intestinal ulcer, tensile strength 24 hours after indomethacin treatment (Intestinal ulcer; [8]): 161 ± 8 mmHg | Antral ulcer, ulceration index (Antral ulcer; [8]): 14.7 mm^2 /stomach | Antral ulcer, rats having no ulcer (Antral ulcer; indomethacin 15 mg./kg. p.o. with 50 mg./kg. p.o. test compound, N 10): 2

CN1CCN(CC(=O)N2c3ccccc3C(=O)Nc3cccnc32)CC1 [Pirenzepine, reference compound]
Intestinal ulcer, tensile strength 24 hours after indomethacin treatment (Intestinal ulcer; [6]): 152 ± 8 mmHg | Antral ulcer, ulceration index (Antral ulcer; [6]): 12.0 mm^2 /stomach | Antral ulcer, rats having no ulcer (Antral ulcer; [7]): 5

CCCc1cc(C(=O)c2ccccc2)cc(SCCN)n1 [Compound E, 2-[(2-aminoethyl)-thio]-4-benzoyl-6-propylpyridine.2 HCl]
ED50 [1, 3]: 20 mg/kg | ED50 [1, 4]: 25 mg/kg

NCCSc1ncccc1C(=O)c1ccc(Cl)cc1 [C, 2-[(2-aminoethyl)-thio]-3-(p-chlorobenzoyl)-pyridine.HCl]
ED50 [1, 3]: 10 mg/kg | ED50 [1, 4]: 15 mg/kg
